Data reported in US10889543B2, “Fine-tune modulators of neuronal excitability for neuropsychiatric disorders” (THE BOARD OF REGENTS OF THE UNIVERSITY OF TEXAS SYSTEM, priority 2016, dated 2021).
Residues, ends and D or L forms follow the SMILES beside them. *: point of attachment. Fmoc = O=C(OCC1c2ccccc2-c2ccccc21)*; Cbz = O=C(OCc1ccccc1)*; Boc = CC(C)(C)OC(=O)*

What follows are compounds tested against T1, FGF14:Nav1.6 complex (Homo sapiens, UniProt Q92915) (assay: Split-luciferase complementation assay (LCA) in HEK293 cells expressing CLuc-FGF14 and CD4-Nav1.6-NLuc). Details: 50 μM, normalized to DMSO control.
T1 construct: FGF14 and the C-tail of Nav1.6 channels are fused to vectors expressing CLuc and NLuc luciferase reporter; expressed in transfected cells; host or cells: HEK293, transient transfection
T1 sequence (Q92915 1-252 isoform Q92915-2): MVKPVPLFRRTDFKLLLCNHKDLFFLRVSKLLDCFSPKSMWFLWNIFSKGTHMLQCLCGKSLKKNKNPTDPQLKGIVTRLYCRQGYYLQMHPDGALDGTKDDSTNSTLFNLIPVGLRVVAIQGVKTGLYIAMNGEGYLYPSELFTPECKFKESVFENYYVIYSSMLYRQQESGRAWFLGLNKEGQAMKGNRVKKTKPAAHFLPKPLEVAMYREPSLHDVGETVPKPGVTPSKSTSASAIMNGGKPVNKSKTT
Format: cell-based
Description: Detailed methods for LCA can be found is known in the art. See e.g., Shavkunov A. S., et al., Methods in Molecular Biology 1278:497-514 (2015). Statistical values were calculated as mean and standard error of the mean (mean±SEM), unless otherwise specified. The statistical significance (*p<0.05) of different groups was determined by Student's t-test, one-way ANOVA with post-hoc Bonferroni's method or Kruskal-Wallis one-way ANOVA on ranks with post-hoc Dunn's method using Sigma Stat (San Jose, Calif.) and Graph PrismR (La Jolla, Calif.) software. Dose-response modulation was determined by: y=START+(END−START)*x^n/(k^n+x^n) where k, Michaelis constant; n, cooperative sites; x, independent variable; y, dependable variable.
To monitor the role of compounds of the invention in the FGF14:Nav1.6 complex, certain embodiments of the invention were screened by split-luciferase complementation assay (LCA) where FGF14 and the C-tail of Nav1.6 channels are fused to vectors expressing CLuc and NLuc luciferase reporter. Compounds of the invention, as exemplified by, compounds ZL0141, ZL0148, ZL0181, and ZL0182 (see FIG. 1) were tested at 50 μM in HEK293 cells expressing CLuc-FGF14 and CD4:Nav1.6-NLuc. […] None of the tested compounds interfered with the full-length luciferase enzyme (FIG. 2B, Chart C). Dose-response studies were then performed with compounds ZL0148, ZL0181, and ZL0182 against the FGF14:Nav1.6 complex.

luminescence response compared to control (DMSO) [%] | SMILES
103±14 | CC(C)C[C@H](NC(=O)[C@H](Cc1ccccc1)NC(=O)OCc1ccccc1)C(=O)N1CCC[C@H]1C(N)=O [ZL0141, Z-Phe-Leu-Pro-NH2] (Cbz-Phe-Leu-Pro-NH2)
132±9 | CC(=O)N[C@@H](Cc1ccccc1)C(=O)N[C@@H](CC(C)C)C(=O)N[C@@H](CCCCNC(=O)OC(C)(C)C)C(N)=O [ZL0148, Ac-Phe-Leu-Lys(Boc)-NH2] (Ac-Phe-Leu-Lys(Boc)-NH2)

SMILES | luminescence response compared to control (DMSO) [%]
CC(=O)N[C@@H](Cc1ccccc1)C(=O)N[C@@H](CC(C)C)C(=O)N1CCC[C@H]1C(=O)N[C@@H](CCCCNC(=O)OCC1c2ccccc2-c2ccccc21)C(=O)O [ZL0182, Ac-Phe-Leu-Pro-Lys(Fmoc)-OH] (Ac-FLPK(Fmoc)-OH) | 129±13
